The target of one assay is D(3) dopamine receptor (Homo sapiens, UniProt P35462). Kind of assay: Ability to displace [125I]iodosulpiride from human dopamine D3 (hD3) receptor transfected into CHO cells. Type of assay: cell-based.
For a further assay, the target named is D(2) dopamine receptor (Homo sapiens, UniProt P14416). As to the kind of experiment: Ability to displace [125I]iodosulpiride from human dopamine D2 (hD2) receptor transfected into CHO cells. Type of assay: cell-based.

The term pKi denotes the negative decadic logarithm of the Ki, by convention in mol/L.

pKi: −log10 of the molar value.

Sequence of D(2) dopamine receptor (P14416 whole entry): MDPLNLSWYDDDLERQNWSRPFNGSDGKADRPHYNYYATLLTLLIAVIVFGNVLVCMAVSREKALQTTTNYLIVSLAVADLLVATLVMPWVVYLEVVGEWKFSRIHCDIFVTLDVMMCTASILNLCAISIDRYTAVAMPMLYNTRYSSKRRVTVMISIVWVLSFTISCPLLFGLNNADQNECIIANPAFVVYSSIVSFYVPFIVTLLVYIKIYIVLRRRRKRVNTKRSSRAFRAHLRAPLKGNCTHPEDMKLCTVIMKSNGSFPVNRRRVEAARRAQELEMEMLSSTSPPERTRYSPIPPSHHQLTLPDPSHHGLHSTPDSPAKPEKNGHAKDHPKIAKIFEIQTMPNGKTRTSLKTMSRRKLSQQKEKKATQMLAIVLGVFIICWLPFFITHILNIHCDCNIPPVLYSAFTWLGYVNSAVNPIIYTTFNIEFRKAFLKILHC
Sequence of D(3) dopamine receptor (P35462 whole entry): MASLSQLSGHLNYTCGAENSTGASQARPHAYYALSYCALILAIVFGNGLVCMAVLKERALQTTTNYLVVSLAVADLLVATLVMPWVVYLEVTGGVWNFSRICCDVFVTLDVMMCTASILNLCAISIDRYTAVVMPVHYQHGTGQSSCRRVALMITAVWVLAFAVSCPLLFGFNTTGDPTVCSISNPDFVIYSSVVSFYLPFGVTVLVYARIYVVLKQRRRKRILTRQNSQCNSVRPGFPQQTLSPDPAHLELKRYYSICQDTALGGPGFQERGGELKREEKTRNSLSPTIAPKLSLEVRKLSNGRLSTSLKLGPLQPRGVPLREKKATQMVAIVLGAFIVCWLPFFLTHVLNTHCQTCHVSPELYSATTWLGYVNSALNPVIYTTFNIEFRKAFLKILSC

Consider `N#Cc1ccc2c(c1)C1CN(CCCCNC(=O)c3ccc(-c4ccccc4)cc3)CC1CO2` (stereo not drawn), for which the pKi at D(3) dopamine receptor was 9.10; on D(2) dopamine receptor, 7.10.

Turning to `N#Cc1ccc2c(c1)[C@H]1CN(Cc3ccccc3)C[C@@H]1CO2`, the values for the pKi on D(3) dopamine receptor and at D(2) dopamine receptor were 8.60 and 7.70, respectively.

With `COc1ccc2c(c1)C1CN(Cc3ccccc3)CC1CO2` (stereo not drawn), the pKi at D(3) dopamine receptor was 7.10; at D(2) dopamine receptor, 6.70.

Regarding `N#Cc1ccc2c(c1)[C@@H]1CN(Cc3ccccc3)C[C@H]1CO2`, the values for the pKi at D(3) dopamine receptor and on D(2) dopamine receptor were 8.20 and 7.50, respectively.

On to `CC(=O)Nc1ccc(CN2C[C@H]3COc4ccc(C#N)cc4[C@@H]3C2)cc1`, for which the results for the pKi on D(3) dopamine receptor and at D(2) dopamine receptor were 7.70 and 7.50, respectively.

For the compound `CC(=O)Nc1ccc(CCN2C[C@@H]3COc4ccc(C#N)cc4[C@H]3C2)cc1`, the pKi on D(3) dopamine receptor was 9.00; at D(2) dopamine receptor, 7.50.

As to `CC(=O)c1ccc(C(=O)Nc2ccc(CCN3CC4COc5ccc(C#N)cc5C4C3)cc2)cc1` (stereo not drawn), the pKi is 9.10 at D(3) dopamine receptor and 7.70 on D(2) dopamine receptor.

As to `CCCN1CC2COc3ccc(C#N)cc3C2C1` (stereo not drawn), the pKi at D(3) dopamine receptor is 7.80; at D(2) dopamine receptor it was 6.90.

Regarding `CS(=O)(=O)Nc1ccc(CCN2CC3COc4ccc(C#N)cc4C3C2)cc1` (stereo not drawn), the negative logarithm of the Ki (pKi) on D(3) dopamine receptor was 8.80; at D(2) dopamine receptor it was 7.60.

On to `COc1ccc2c(c1)OCC1CN(Cc3ccccc3)CC21` (stereo not drawn), for which the pKi at D(3) dopamine receptor is 7.10; on D(2) dopamine receptor it was 6.60.

Regarding `CC(=O)Nc1ccc(CCN2CC3COc4ccc(C#N)cc4C3C2)cc1` (stereo not drawn), the pKi at D(3) dopamine receptor was 9.00; at D(2) dopamine receptor it was 7.40.

For the compound `CC(=O)Nc1ccc(CN2C[C@@H]3COc4ccc(C#N)cc4[C@H]3C2)cc1`, the negative-log Ki (pKi) at D(3) dopamine receptor is 8.00; at D(2) dopamine receptor, 7.90.

`CC(=O)Nc1ccc(CCN2C[C@H]3COc4ccc(C#N)cc4[C@@H]3C2)cc1`: the pKi was 8.50 on D(3) dopamine receptor and 7.40 at D(2) dopamine receptor.

`N#Cc1ccc2c(c1)[C@H]1CN(Cc3ccc(F)cc3)C[C@@H]1CO2`: the pKi is 8.20 at D(3) dopamine receptor and 7.60 on D(2) dopamine receptor.

With `N#Cc1ccc2c(c1)C1CN(Cc3ccc(F)cc3)CC1CO2` (stereo not drawn), the pKi on D(3) dopamine receptor is 8.10; on D(2) dopamine receptor, 7.10.

On to `CC(=O)Nc1ccc(CN2CC3COc4ccc(C#N)cc4C3C2)cc1` (stereo not drawn), for which the results for the pKi at D(3) dopamine receptor and on D(2) dopamine receptor were 7.90 and 7.60, respectively.

Consider `N#Cc1ccc2c(c1)[C@@H]1CN(Cc3ccc(F)cc3)C[C@H]1CO2`, for which the values for the pKi at D(3) dopamine receptor and at D(2) dopamine receptor were 7.80 and 7.40, respectively.

Regarding `N#Cc1ccc2c(c1)[C@H]1CN(CCCCNC(=O)c3ccc(-c4ccccc4)cc3)C[C@@H]1CO2`, the pKi on D(3) dopamine receptor is 9.50; on D(2) dopamine receptor, 7.50.

With `N#Cc1ccc2c(c1)[C@@H]1CN(CCCCNC(=O)c3ccc(-c4ccccc4)cc3)C[C@H]1CO2`, the pKi on D(3) dopamine receptor is 9.20; on D(2) dopamine receptor it was 7.30.

For `N#Cc1ccc2c(c1)C1CN(Cc3ccccc3)CC1CO2` (cis isomer), the pKi was 7.00 on D(3) dopamine receptor and 6.50 at D(2) dopamine receptor.

Take `N#Cc1ccc2c(c1)[C@H]1CN(CCCCNC(=O)c3ccc(-c4ccc(N)cc4)cc3)C[C@@H]1CO2` (single isomer, unassigned): the negative-log Ki (pKi) is 9.70 on D(3) dopamine receptor and 7.70 on D(2) dopamine receptor.

Take `Brc1ccc2c(c1)C1CN(Cc3ccccc3)CC1CO2` (stereo in doubt; cis): the pKi was 7.00 on D(3) dopamine receptor and 6.30 at D(2) dopamine receptor.

In the case of `Brc1ccc2c(c1)C1CN(Cc3ccccc3)CC1CO2` (stereo in doubt; trans), the pKi was 7.80 at D(3) dopamine receptor and 7.30 at D(2) dopamine receptor.

Consider `Clc1ccc2c(c1)C1CN(Cc3ccccc3)CC1CO2` (trans isomer), for which the pKi is 7.80 at D(3) dopamine receptor and 7.50 on D(2) dopamine receptor.

`N#Cc1ccc2c(c1)OCC1CN(Cc3ccccc3)CC21` (trans isomer): the pKi is 7.60 at D(3) dopamine receptor and 6.30 at D(2) dopamine receptor.

Take `N#Cc1ccc2c(c1)C1CN(Cc3ccccc3)CC1CO2` (trans isomer): the pKi is 8.40 on D(3) dopamine receptor and 7.60 on D(2) dopamine receptor.

With `Fc1ccc2c(c1)C1CN(Cc3ccccc3)CC1CO2` (trans isomer), the pKi at D(3) dopamine receptor is 8.10; on D(2) dopamine receptor, 7.60.

Take `c1ccc(CN2CC3COc4ccccc4C3C2)cc1` (trans isomer): the pKi on D(3) dopamine receptor is 6.90; at D(2) dopamine receptor, 6.50.

For the compound `N#Cc1ccc2c(c1)C1CN(Cc3ccccc3)CC1CC2` (trans isomer), the pKi on D(3) dopamine receptor is 8.20; on D(2) dopamine receptor, 8.00.

These data come from ChEMBL document CHEMBL1131803, “Novel benzopyrano[3,4-c]pyrrole derivatives as potent and selective dopamine D3 receptor antagonist” (Bioorg Med Chem Lett, 1999).
